Molecules are shown by their SMILES.

The first test has as its system H1299 NSCLC (non-small cell lung cancer) cells. The experiment in a line: Cancer cell growth inhibition (MTS). It counts as cell-based. The settings on record: Homo sapiens, NCI-H1299, 48 hours, MTS reagent. The protocol: To investigate the inhibitory effect of the compounds of Examples of the present invention on cancer cell growth, the following experiment was performed. Particularly, H1299 NSCLC (non-small cell lung cancer) cells were distributed in a 96-well plate at the density of 5×10^3 cells/well, followed by culture in a 37° C., 5% CO2 incubator for 24 hours. The compound of each example was dissolved in DMSO (10 nM, 100 nM, 1 μM, 10 μM), which was treated to each well. 48 hours later, cell growth was measured by using MTS reagent (3-(4,5-dimethylthiazole-2-yl)-5-(3-carboxymethoxyphenyl)-2-(4-sulfophenyl)-2H-tetrazolium). The experiment was performed in triplicate and the standard error of the analysis result was corrected.
On to `COc1ccc([C@H](C)C(=O)c2ccc3c(c2OC)C=CC(C)(C)O3)cc1OC` [Example 33, (S)-2-(3,4-Dimethoxyphenyl)-1-(5-methoxy-2,2-dimethyl-2H-chromen-6-yl)propan-1-one], for which the IC50 (commonly the concentration that gives 50% inhibition) came to 0.49 µM.

Regarding `COc1cc2c(cc1OC)[C@H](C(=O)c1ccc3c(c1)C=CC(C)(C)O3)CCO2` (stereo in doubt) [Example 26, (6,7-Dimethoxychroman-4-yl) (2,2-dimethyl-2H-chromen-6-yl)methanone], it took 3.8 µM to reach half-maximal inhibition (IC50).

In turn, `CCO[C@@H]1c2ccc3c(c2O[C@@H]2COc4cc(OC)c(OC)cc4[C@H]12)C=CC(C)(C)O3` [Example 9, (7S,7aR,3aS)-9,10-Dimethoxy-3,3-dimethyl-7-ethoxy-7,7a,13,13a-tetrahydro-3H-chromeno[3,4-b]pyrano[2,3-h]chromene] returned a half-inhibitory concentration (IC50) of 9.8 µM.

In turn, `COc1ccc([C@H]2COc3c(ccc4c3C=CC(C)(C)O4)C2=O)cc1OC` [Example 25, (3S)-3-(3,4-Dimethoxyphenyl)-8,8-dimethyl-2,3-dihydro-4H,8H-pyrano[2,3-f]chromen-4-one] registered an IC50 of 4.5 µM.

`COc1cc2c(cc1OC)[C@@H]1/C(=N/O)c3ccc4c(c3O[C@@H]1CO2)C=CC(C)(C)O4` [Example 16, (7aR,13aS)-9,10-Dimethoxy-3,3-dimethyl-13,13a-dihydro-3H-chromeno[3,4-b]pyrano[2,3-h]chromen-7(7aH)-one oxime] registered an IC50 of 0.3 µM.

`CC1(C)C=Cc2c(ccc3c2O[C@@H]2COc4cc(O)c(O)cc4[C@@H]2C3=O)O1` [Example 4, (7aS,13aS)-13,13a-Dihydro-9,10-dihydroxy-3,3-dimethyl-3H-chromeno[3,4-b]pyrano[2,3-h]chromen-7(7aH)-one] yielded a half-inhibitory concentration (IC50) of 0.97 µM.

The compound `COc1ccc([C@@H](C)C(=O)c2ccc3c(c2OC)C=CC(C)(C)O3)cc1OC` [Example 34, (R)-2-(3,4-Dimethoxyphenyl)-1-(5-methoxy-2,2-dimethyl-2H-chromen-6-yl)propan-1-one] showed a half-maximal inhibitory concentration (IC50) of 1.3 µM.

Take `CCCO[C@@H]1c2ccc3c(c2O[C@@H]2COc4cc(OC)c(OC)cc4[C@H]12)C=CC(C)(C)O3` [Example 10, (7S,7aR,3aS)-9,10-Dimethoxy-3,3-dimethyl-7-propoxy-7,7a,13,13a-tetrahydro-3H-chromeno[3,4-b]pyrano[2,3-h]chromene]: 10.5 µM corresponded to half-maximal inhibition (IC50).

The compound `COc1ccc(C(C)C(=O)c2ccc3c(c2OC)C=CC(C)(C)O3)cc1OC` (centres unmarked) [Example 29, 2-(3,4-Dimethoxyphenyl)-1-(5-methoxy-2,2-dimethyl-2H-chromen-6-yl)propan-1-one] displayed a 50% inhibitory concentration (IC50) of 0.73 µM.

Compound `COc1ccc(C2(C(=O)c3ccc4c(c3OC)C=CC(C)(C)O4)CC2)cc1OC` [Example 32] displayed an IC50 of 102 µM.

As for `COc1ccc(CC(=O)c2ccc3c(c2)C=CC(C)(C)O3)cc1OC` [Example 27, 2-(3,4-Dimethoxyphenyl)-1-(2,2-dimethyl-2H-chromen-6-yl)ethanone], the IC50 amounted to 1 µM.

As to `COc1cc2c(cc1OC)[C@@H]1Cc3ccc4c(c3O[C@@H]1CO2)C=CC(C)(C)O4` [Example 7, (7aS,13aS)-9,10-Dimethoxy-3,3-dimethyl-7,7a,13,13a-tetrahydro-3H-chromeno[3,4-b]pyrano[2,3-h]chromene], the IC50 was 4.2 µM.

Compound `COc1ccc(C(C)(C)C(=O)c2ccc3c(c2OC)C=CC(C)(C)O3)cc1OC` [Example 30, 2-(3,4-Dimethoxyphenyl)-1-(5-methoxy-2,2-dimethyl-2H-chromen-6-yl)-2-methylpropan-1-one] registered a concentration for half-maximal inhibition (IC50) of 3.2 µM.

As to `CO/N=C1\c2ccc3c(c2O[C@@H]2COc4cc(OC)c(OC)cc4[C@H]12)C=CC(C)(C)O3` [Example 17, (7aR,13aS)-9,10-Dimethoxy-3,3-dimethyl-13,13a-dihydro-3H-chromeno[3,4-b]pyrano[2,3-h]chromen-7(7aH)-one O-methyloxime], it took 4.3 µM to reach half-maximal inhibition (IC50).

Take `COc1cc2c(cc1OC)[C@@H]1[C@H](OC(C)=O)c3ccc4c(c3O[C@@H]1CO2)C=CC(C)(C)O4` [Example 13, (7S,7aS,13aS)-9,10-Dimethoxy-3,3-dimethyl-7,7a,13,13a-tetrahydro-3H-chromeno[3,4-b]pyrano[2,3,h]chromen-7-yl acetate]: the IC50 amounted to 0.68 µM.

Consider `COc1cc2c(cc1OC)-c1c(oc3c4c(ccc3c1=O)OC(C)(C)C=C4)CO2` [Example 5, 9,10-Dimethoxy-3,3-dimethyl-3H-chromeno[3,4-b]pyrano[2,3-h]chromen-7-(13H)-one], for which the IC50 worked out at 10.1 µM.

The compound `COc1cc2c(cc1OC)[C@@H]1C(=O)c3ccc(OC)c(CC=C(C)C)c3O[C@@H]1CO2` [Example 21, 2,3,9-Trimethoxy-8-(3-methyl-but-2-enyl)-6a,12a-dihydro-6H-chromeno[3,4-b]chromen-12-one] yielded an IC50 of 5.2 µM.

A further test relates to HIF-1α. The experiment in a line: HIF-1α inhibitory activity, hypoxia-response element-luciferase in HRE-A549 cells. It counts as cell-based. The settings on record: HIF-1α inhibition, HRE-A549. The procedure: HRE-A549 cells stably transfected with hypoxia-response element-luciferase construct were incubated in Dulbecco's modified Eagle's medium. Following overnight serum deprivation, the cells were treated with or without Deguelin or example compounds. After 1 h incubation, the cells were incubated in hypoxia-chamber for 24 h at 37° C. Luciferase activity was measured by adding luciferase assay reagent (Promega, Madison, Wis.).
Regarding `COc1c(C(=O)Cc2ccccc2F)ccc2c1C=CC(C)(C)O2` [Example 67, 2-(2-fluorophenyl)-1-(5-methoxy-2,2-dimethyl-2H-chromen-6-yl)ethanone], the “times lower concentration compared to Comparative Example 1 (Deguelin)” value is 2.

Staying with this test, now noted: HRE-A549 cells, hypoxia-chamber 24 h, luciferase activity; read-out: IC50.
As to `COc1c(C(=O)Cc2ccc(F)c(F)c2)ccc2c1C=CC(C)(C)O2` [Example 56, 2-(3,4-difluorophenyl)-1-(5-methoxy-2,2-dimethyl-2H-chromen-6-yl)ethanone], the IC50 turned out to be 1280 nM.

On to `COc1c(C(=O)Cc2ccccc2F)ccc2c1C=CC(C)(C)O2` [Example 67, 2-(2-fluorophenyl)-1-(5-methoxy-2,2-dimethyl-2H-chromen-6-yl)ethanone], for which the IC50 is 78.8 nM.

For the compound `COc1c(C(=O)Cc2ccc(C(F)(F)F)cc2)ccc2c1C=CC(C)(C)O2` [Example 75, 1-(5-methoxy-2,2-dimethyl-2H-chromen-6-yl)-2-(4-(trifluoromethyl)phenyl)ethanone], the 50% inhibitory concentration (IC50) was 604 nM.

For `COc1c(C(=O)Cc2ccccc2)ccc2c1C=CC(C)(C)O2` [Example 59, 1-(5-methoxy-2,2-dimethyl-2H-chromen-6-yl)-2-phenylethanone], the IC50 was found to be 883 nM.

Regarding `COc1c(C(=O)Cc2ccccc2Cl)ccc2c1C=CC(C)(C)O2` [Example 64, 2-(2-chlorophenyl)-1-(5-methoxy-2,2-dimethyl-2H-chromen-6-yl)ethanone], the concentration for half-maximal inhibition (IC50) came out at 334 nM.

As to `COc1c(C(=O)Cc2ccccc2O)ccc2c1C=CC(C)(C)O2` [Example 84, 2-(2-hydroxyphenyl)-1-(5-methoxy-2,2-dimethyl-2H-chromen-6-yl)ethanone], the IC50 stood at 943 nM.

With `COc1c(C(=O)Cc2ccc(O)cc2)ccc2c1C=CC(C)(C)O2` [Example 85, 2-(4-hydroxyphenyl)-1-(5-methoxy-2,2-dimethyl-2H-chromen-6-yl)ethanone], the half-maximal inhibitory concentration (IC50) is 791 nM.

On to `COc1c(C(=O)Cc2ccc(F)cc2)ccc2c1C=CC(C)(C)O2` [Example 73, 2-(4-fluorophenyl)-1-(5-methoxy-2,2-dimethyl-2H-chromen-6-yl)ethanone], for which the IC50 was 1030 nM.

As for `COc1c(C(=O)Cc2cccc(O)c2)ccc2c1C=CC(C)(C)O2` [Example 83, 2-(3-hydroxyphenyl)-1-(5-methoxy-2,2-dimethyl-2H-chromen-6-yl)ethanone], the IC50 was 1450 nM.

`COc1cccc(CC(=O)c2ccc3c(c2OC)C=CC(C)(C)O3)c1` [Example 76, 1-(5-methoxy-2,2-dimethyl-2H-chromen-6-yl)-2-(3-methoxyphenyl)ethanone]: the IC50 was determined as 830 nM.

Consider `COc1c(C(=O)Cc2cccc(F)c2)ccc2c1C=CC(C)(C)O2` [Example 66, 2-(3-fluorophenyl)-1-(5-methoxy-2,2-dimethyl-2H-chromen-6-yl)ethanone], for which the IC50 turned out to be 363 nM.

Source of the values: patent US9745280B2, “Compound or pharmaceutically acceptable salt thereof, and pharmaceutical composition containing same as active ingredient” (SNU R&DB FOUNDATION, priority 2012, dated 2017).
